Read-outs that look alike come from different tables or passages of the source.
Tests used:
[1] = molecular target: human cannabinoid CB1 receptor (Homo sapiens, UniProt P21554); test: CB1 receptor radioligand ([3H]CP-55,940) displacement binding assay; settings: for inhibition at 1 µM: read-out: displacement of [3H]CP-55,940 in the preliminary screen (printed in the CB1 Ki column)
Description: In all cases, Ki values were calculated by applying the Cheng-Prusoff equation [34] to the IC50 values (obtained by GraphPad, GraphPad Software, Inc., La Jolla, CA, USA) for the displacement of the bound radioligand by increasing concentrations of the test compounds (after three separate experiments for each compound).

[2] = CB1 (Ki, nM), displacement of 0.5 nM [3H]CP-55,940, means ± SEM, n = 3, Cheng-Prusoff from IC50
[3] = Experimental activity (pIC50, M), CoMFA training and test set input
[4] = IC50 (CB1 displacement), displacement of [3H]CP-55,940
[5] = CoMFA training and test set input, read-out: Experimental activity (pIC50) (converted)

Chain of human cannabinoid CB1 receptor (P21554 whole entry): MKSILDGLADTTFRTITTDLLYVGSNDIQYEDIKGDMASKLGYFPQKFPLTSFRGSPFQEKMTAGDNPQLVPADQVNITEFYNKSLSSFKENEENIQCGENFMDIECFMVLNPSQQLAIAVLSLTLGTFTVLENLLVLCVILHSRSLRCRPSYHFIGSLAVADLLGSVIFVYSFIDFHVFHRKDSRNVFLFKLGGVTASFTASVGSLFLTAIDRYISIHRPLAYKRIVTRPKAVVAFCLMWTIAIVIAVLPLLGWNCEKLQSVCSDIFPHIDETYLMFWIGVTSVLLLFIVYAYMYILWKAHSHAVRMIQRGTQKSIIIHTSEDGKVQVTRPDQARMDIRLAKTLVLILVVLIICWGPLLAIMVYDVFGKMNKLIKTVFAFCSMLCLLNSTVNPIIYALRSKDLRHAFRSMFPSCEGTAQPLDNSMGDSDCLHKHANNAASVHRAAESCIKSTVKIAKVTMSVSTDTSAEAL

Compound	Ki [1, 2] [nM]	IC50 [1, 3] [nM]	melting point [°C]	inhibition at 1 µM [1] [%]	IC50 [1, 4] [nM]	IC50 [1, 5] [nM]	Ki ([1]; read-out: CB1 (Ki)) [nM]
O=C(c1cccc2ccccc12)n1c(-c2ccncc2)nc2ccccc21 [Compound 18, Naphthalen-1-yl-(2-(pyridin-4-yl)-1H-benzo[d]imidazol-1-yl)methanone]	37.8 ± 5.3	69.3	155 to 156.1	–	–	–	–
O=C(c1cccc2ccccc12)n1c(-c2cccnc2)nc2ccc(F)cc21 [Compound 16, (6-Fluoro-2-(pyridin-3-yl)-1H-benzo[d]imidazol-1-yl)(naphthalen-1-yl)methanone]	–	–	–	< 50	–	–	–
O=C(c1cccc2ccccc12)n1c(-c2ccncc2)nc2cc(F)ccc21 [Compound 19, (5-Fluoro-2-(pyridin-4-yl)-1H-benzo[d]imidazol-1-yl)(naphthalen-1-yl)methanone]	–	–	180.7 to 181.7	< 50	–	–	–
Cc1cc2nc(-c3cccnc3)n(C(=O)c3ccc4ccccc4c3)c2cc1C [Compound 28, (5,6-Dimethyl-2-(pyridin-3-yl)-1H-benzo[d]imidazol-1-yl)(naphthalen-2-yl)methanone]	567 ± 27.8	1040	166.7 to 166.9	–	–	–	–
Cc1cc2nc(-c3ccncc3)n(Cc3cccc4ccccc34)c2cc1C [Compound 44, 5,6-Dimethyl-1-(naphthalen-1-ylmethyl)-2-(pyridin-4-yl)-1H-benzo[d]imidazole]	4.84 ± 2	8.87	156.8 to 157.6	–	< 10	–	–
Cc1cc2nc(-c3cccnc3)n(Cc3ccc4ccccc4c3)c2cc1C [Compound 52, 5,6-Dimethyl-1-(naphthalen-2-ylmethyl)-2-(pyridin-3-yl)-1H-benzo[d]imidazole]	140 ± 10.1	256	138.5 to 139.5	–	–	–	–
O=C(c1ccc2ccccc2c1)n1c(-c2ccccn2)nc2ccccc21 [Compound 22, Naphthalen-2-yl(2-(pyridin-2-yl)-1H-benzo[d]imidazol-1-yl)methanone]	–	–	145 to 146	< 50	–	–	–
O=C(c1ccc2ccccc2c1)n1c(-c2ccccn2)nc2ccc(F)cc21 [Compound 23, (6-Fluoro-2-(pyridin-2-yl)-1H-benzo[d]imidazol-1-yl)(naphthalen-2-yl)methanone]	11.4 ± 0.9	20.9	–	–	~20	–	–
O=C(c1cccc2ccccc12)n1c(-c2ccccn2)nc2cc(F)ccc21 [Compound 11, (5-Fluoro-2-(pyridin-2-yl)-1H-benzo[d]imidazol-1-yl)(naphthalen-1-yl)methanone]	–	–	167.2 to 167.9	< 50	–	–	–
Cc1cc2nc(-c3ccncc3)n(Cc3ccc4ccccc4c3)c2cc1C [Compound 56, 5,6-Dimethyl-1-(naphthalen-2-ylmethyl)-2-(pyridin-4-yl)-1H-benzo[d]imidazole]	–	–	133.7 to 134.5	–	–	442	241 ± 10
O=C(c1cccc2ccccc12)n1c(-c2cccnc2)nc2cc(F)ccc21 [Compound 15, (5-Fluoro-2-(pyridin-3-yl)-1H-benzo[d]imidazol-1-yl)(naphthalen-1-yl)methanone]	534	979	–	–	–	–	–
Fc1ccc2nc(-c3cccnc3)n(Cc3ccc4ccccc4c3)c2c1 [Compound 51, 6-Fluoro-1-(naphthalen-2-ylmethyl)-2-(pyridin-3-yl)-1H-benzo[d]imidazole]	10.7 ± 2.8	19.6	–	–	~20	–	–
Cc1cc2nc(-c3ccncc3)n(C(=O)c3ccc4ccccc4c3)c2cc1C [Compound 32, (5,6-Dimethyl-2-(pyridin-4-yl)-1H-benzo[d]imidazol-1-yl)(naphthalen-2-yl)methanone]	–	–	160.4 to 160.9	< 50	–	–	–
Cc1cc2nc(-c3ccccn3)n(Cc3ccc4ccccc4c3)c2cc1C [Compound 48, 5,6-Dimethyl-1-(naphthalen-2-ylmethyl)-2-(pyridin-2-yl)-1H-benzo[d]imidazole]	47.4 ± 11.1	86.9	–	–	–	–	–
O=C(c1cccc2ccccc12)n1c(-c2cccnc2)nc2ccccc21 [Compound 14, Naphthalen-1-yl-(2-(pyridin-3-yl)-1H-benzo[d]imidazol-1-yl)methanone]	–	180	148 to 148.1	–	–	–	–
Cc1cc2nc(-c3ccncc3)n(C(=O)c3cccc4ccccc34)c2cc1C [Compound 21, (5,6-Dimethyl-2-(pyridin-4-yl)-1H-benzo[d]imidazol-1-yl)(naphthalen-1-yl)methanone]	3.95 ± 0.8	7.24	167.2 to 168	–	< 10	–	–
Fc1ccc2c(c1)nc(-c1ccncc1)n2Cc1ccc2ccccc2c1 [Compound 54, 5-Fluoro-1-(naphthalen-2-ylmethyl)-2-(pyridin-4-yl)-1H-benzo[d]imidazole]	44.4 ± 5.5	81.5	177.8 to 178.5	–	–	–	–

Compound	Ki [1, 2] [nM]	IC50 [1, 3] [nM]	melting point [°C]	inhibition at 1 µM [1] [%]	IC50 [1, 4] [nM]	IC50 [1, 5] [nM]	Ki ([1]; read-out: CB1 (Ki)) [nM]
Cc1cc2nc(-c3ccccn3)n(C(=O)c3ccc4ccccc4c3)c2cc1C [Compound 24, (5,6-Dimethyl-2-(pyridin-2-yl)-1H-benzo[d]imidazol-1-yl)(naphthalen-2-yl)methanone]	28.1 ± 2.3	51.5	168.7 to 169.6	–	–	–	–
Fc1ccc2nc(-c3ccncc3)n(Cc3cccc4ccccc34)c2c1 [Compound 43, 6-Fluoro-1-(naphthalen-1-ylmethyl)-2-(pyridin-4-yl)-1H-benzo[d]imidazole]	–	–	167.4 to 168.1	–	–	1120	614 ± 54.7
Fc1ccc2c(c1)nc(-c1cccnc1)n2Cc1cccc2ccccc12 [Compound 38, 5-Fluoro-1-(naphthalen-1-ylmethyl)-2-(pyridin-3-yl)-1H-benzo[d]imidazole]	98.2 ± 33.5	180	163.4 to 163.9	–	–	–	–
Fc1ccc2nc(-c3ccccn3)n(Cc3ccc4ccccc4c3)c2c1 [Compound 47, 6-Fluoro-1-(naphthalen-2-ylmethyl)-2-(pyridin-2-yl)-1H-benzo[d]imidazole]	–	–	170.5 to 171.3	< 50	–	–	–
O=C(c1ccc2ccccc2c1)n1c(-c2ccncc2)nc2ccccc21 [Compound 29, Naphthalen-2-yl(2-(pyridin-4-yl)-1H-benzo[d]imidazol-1-yl)methanone]	–	–	145 to 146.1	–	–	8220	4490 ± 133
c1cncc(-c2nc3ccccc3n2Cc2ccc3ccccc3c2)c1 [Compound 49, 1-(Naphthalen-2-ylmethyl)-2-(pyridin-3-yl)-1H-benzo[d]imidazole]	–	–	146.3 to 147	–	–	3380	1840 ± 79.8
Fc1ccc2c(c1)nc(-c1ccccn1)n2Cc1cccc2ccccc12 [Compound 34, 5-Fluoro-1-(naphthalen-1-ylmethyl)-2-(pyridin-2-yl)-1H-benzo[d]imidazole]	–	–	155.7 to 155.9	< 50	–	–	–
O=C(c1ccc2ccccc2c1)n1c(-c2cccnc2)nc2cc(F)ccc21 [Compound 26, (5-Fluoro-2-(pyridin-3-yl)-1H-benzo[d]imidazol-1-yl)(naphthalen-2-yl)methanone]	–	–	–	–	–	10400	5700 ± 200
O=C(c1ccc2ccccc2c1)n1c(-c2ccncc2)nc2ccc(F)cc21 [Compound 31, (6-Fluoro-2-(pyridin-4-yl)-1H-benzo[d]imidazol-1-yl)(naphthalen-2-yl)methanone]	5.55 ± 0.9	10.2	–	–	< 10	–	–
Fc1ccc2nc(-c3ccncc3)n(Cc3ccc4ccccc4c3)c2c1 [Compound 55, 6-Fluoro-1-(naphthalen-2-ylmethyl)-2-(pyridin-4-yl)-1H-benzo[d]imidazole]	–	–	163.5 to 164.1	–	–	1040	567 ± 7
O=C(c1ccc2ccccc2c1)n1c(-c2cccnc2)nc2ccc(F)cc21 [Compound 27, (6-Fluoro-2-(pyridin-3-yl)-1H-benzo[d]imidazol-1-yl)(naphthalen-2-yl)methanone]	–	–	167.2 to 167.7	–	–	1770	963 ± 155
c1ccc2cc(Cn3c(-c4ccncc4)nc4ccccc43)ccc2c1 [Compound 53, 1-(Naphthalen-2-ylmethyl)-2-(pyridin-4-yl)-1H-benzo[d]imidazole]	–	–	–	–	–	851	464 ± 30.3
Cc1cc2nc(-c3ccccn3)n(Cc3cccc4ccccc34)c2cc1C [Compound 36, 5,6-Dimethyl-1-(naphthalen-1-ylmethyl)-2-(pyridin-2-yl)-1H-benzo[d]imidazole]	13 ± 1.1	23.9	155.5 to 156.1	–	~20	–	–
Cc1cc2nc(-c3ccccn3)n(C(=O)c3cccc4ccccc34)c2cc1C [Compound 13, (5,6-Dimethyl-2-(pyridin-2-yl)-1H-benzo[d]imidazol-1-yl)(naphthalen-1-yl)methanone]	–	–	167.2 to 168	< 50	–	–	–
Fc1ccc2nc(-c3ccccn3)n(Cc3cccc4ccccc34)c2c1 [Compound 35, 6-Fluoro-1-(naphthalen-1-ylmethyl)-2-(pyridin-2-yl)-1H-benzo[d]imidazole]	–	–	160.7 to 161.1	< 50	–	–	–
c1ccc(-c2nc3ccccc3n2Cc2cccc3ccccc23)nc1 [Compound 33, 1-(Naphthalen-1-ylmethyl)-2-(pyridin-2-yl)-1H-benzo[d]imidazole]	–	–	150.7 to 151.6	< 50	–	–	–
O=C(c1cccc2ccccc12)n1c(-c2ccccn2)nc2ccccc21 [Compound 10, Naphthalen-1-yl(2-(pyridin-2-yl)-1H-benzo[d]imidazol-1-yl)methanone]	–	–	–	< 50	–	–	–
